“And” between values parts separate entries of the source, which are not always exact repeats. Equal values may be shown once.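 Protocol summary: plate cells (96-well), add compound at 5 concentrations, incubate 48 h, interpolate endpoints linearly. GI50: concentration for 50% inhibition of growth. TGI: concentration producing complete growth inhibition.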
Columns and labels:
Experiment in all cases: NCI-60 cell line screen, 48 h
[1] = tested on: BT-549 breast
[2] = tested on: SNB-19 CNS
[3] = tested on: HCT-116 colon
[4] = tested on: HT29 colon
[5] = tested on: A549 NSCLC
[6] = tested on: 786-0 renal
[7] = tested on: ACHN renal
[8] = tested on: NCI-H23 lung
[9] = tested on: OVCAR-8 ovarian
[10] = tested on: UACC-257 melanoma

Structure (SMILES) | GI50 [1] | TGI [1] | GI50 [2] | TGI [2] | GI50 [3] | TGI [3] | GI50 [4] | TGI [4] | GI50 [5] | TGI [5] | GI50 [6] | TGI [6] | GI50 [7] | TGI [7] | GI50 [8] | TGI [8] | GI50 [9] | TGI [9] | GI50 [10] | TGI [10]
O=C1CC/C(=C\COc2ccc3ccc(=O)oc3c2)O1 | 10.2 µM | 26.4 µM | 13.2 µM | 36.8 µM | 6.25 µM | 22.8 µM | 3.04 µM | 17.3 µM | 24.1 µM | > 100 µM | 2.89 µM | 15.9 µM | 0.386 µM | 2.02 µM | 11.7 µM | 30 µM | 16.6 µM | 40.8 µM | 13.6 µM | 30 µM
CCC(=O)c1ccc2c(c1)N(CCCN1CCN(CCO)CC1)c1ccccc1S2 | 14.9 µM | 28.9 µM | 18.5 µM | 36.1 µM | 10.5 µM | 22.9 µM | 3.98 µM | 14.7 µM | 16.2 µM | 32.1 µM | 13.2 µM | 26.9 µM | 16.2 µM | 32 µM | 15.9 µM | 31.4 µM | 16.9 µM | 32.7 µM | 2.86 µM | 7.97 µM
COc1ccc(-c2cc(-c3nnc(SCC(=O)Nc4ccc(C(C)=O)cc4)o3)c3ccccc3n2)cc1 | 8.77 µM | > 100 µM | 12.6 µM | > 100 µM | 2.9 µM | > 100 µM | > 100 µM | > 100 µM | > 100 µM | > 100 µM | 1.94 µM | 4.95 µM | 5.64 µM | 31.7 µM | 25.4 µM | > 100 µM | 48.9 µM | > 100 µM | > 100 µM | > 100 µM
Cn1c(=O)oc2cc(C3CCC(=O)N3Cc3ccc(Cl)cc3)ccc21 (stereo not drawn) | – | – | – | > 100 µM | – | > 100 µM | – | > 100 µM | – | > 100 µM | – | > 100 µM | – | > 100 µM | – | > 100 µM | – | > 100 µM | – | > 100 µM
Cc1cc(NC(=O)NC(=O)c2ccccc2NC(=O)CN)ccc1Oc1ncc(Br)cn1 | – | – | 0.336 µM | 26.3 µM and 16.4 µM | 0.43 µM | 26.1 µM and > 100 µM | 0.0653 µM | – | – | 35.8 µM | 0.4 µM | 24.2 µM and 17.8 µM | 5.25 µM | 40.7 µM and 80.3 µM | 0.331 µM | 15.5 µM and 13.8 µM | 0.65 µM | 45.7 µM and 17.8 µM | – | 38.4 µM
COc1ccccc1NC(=O)CC(=O)NNCC(=O)Nc1nnc(-c2ccccc2)o1 | – | – | – | > 100 µM | – | > 100 µM | – | > 100 µM | – | > 100 µM | – | > 100 µM | – | > 100 µM | – | > 100 µM | – | > 100 µM | – | > 100 µM
O=C(O)c1ccc(C2C3C=CC(C3)C2[N+](=O)[O-])cc1 (stereo not drawn) | – | – | – | > 100 µM | – | – | – | > 100 µM | – | > 100 µM | – | > 100 µM | – | – | – | > 100 µM | – | > 100 µM | – | > 100 µM
COc1cc2c(cc1OCCCN1CCN(c3cc(=O)oc4c(C)c(OC)ccc34)CC1)N=C[C@@H]1CCCN1C2=O | 1.21 µM | 6.96 µM | 2.52 µM | > 100 µM | 1.16 µM | 8.94 µM | 1.16 µM | – | – | – | 1.05 µM | 9.62 µM | 1.86 µM | 4.55 µM | 1.89 µM | 5.2 µM | 2.62 µM | > 100 µM | – | –
CNC(=O)OCc1[nH]ccc2c(C)c3nc4ccc(OC)cc4c3cc12 | – | – | – | > 25.1 µM | – | > 100 µM | – | > 100 µM | – | > 100 µM | – | 20.5 µM | – | 18 µM | – | > 22.2 µM | – | > 24.9 µM | – | > 100 µM
N#C[C@H]1Nc2ccccc2[C@@H](O)C1O (stereo partly drawn) | – | – | – | – | – | > 100 µM | – | > 100 µM | – | > 100 µM | – | > 100 µM | – | > 100 µM | – | > 100 µM | – | > 100 µM | – | > 100 µM
O=C(O)CCCNS(=O)(=O)c1ccc2ccccc2c1 | – | – | – | > 100 µM | – | – | – | > 100 µM | – | > 100 µM | – | > 100 µM | – | > 100 µM | – | > 100 µM | – | > 100 µM | – | > 100 µM
NC(N)=N/N=C/c1c(-c2ccc(Cl)c([N+](=O)[O-])c2)nc2ccccn12 | 0.119 µM | 1.18 µM | – | – | 0.362 µM | 1.55 µM | 1.42 µM | > 100 µM | 1.63 µM | 2.99 µM | 0.512 µM | 1.9 µM | 11.3 µM | 34.9 µM | 1.92 µM | 3.95 µM | – | – | 6.76 µM | 31 µM
CC1=CC2CC(C)C1(C)CCc1ccoc12 (stereo not drawn) | – | – | – | > 100 µM | – | > 100 µM | – | > 100 µM | – | > 100 µM | – | > 100 µM | – | > 100 µM | – | > 100 µM | – | > 100 µM | – | > 100 µM
CC(=O)OC12CC(C)C3(O)C4C=C(C)C(=O)[C@@]4(O)CC(CO)=C[C@H]3C1C2(C)C (stereo partly drawn) | > 1000 µM | > 1000 µM | > 1000 µM | > 1000 µM | > 1000 µM | > 1000 µM | > 1000 µM | > 1000 µM | – | – | > 1000 µM | > 1000 µM | > 1000 µM | > 1000 µM | > 1000 µM | > 1000 µM | > 1000 µM | > 1000 µM | > 1000 µM | > 1000 µM
CCOC(=O)C(=O)Nc1ccc(Cl)c(C(F)(F)F)c1 | – | – | – | > 100 µM | – | > 100 µM | – | > 100 µM | – | > 100 µM | – | > 100 µM | – | > 100 µM | – | > 100 µM | – | > 100 µM | – | > 100 µM
COC(=O)C1=Cc2c(cc(OC)c(OC)c2OC)[C@H](c2ccc(OC)c(OC)c2OC)C1C(=O)OC (stereo partly drawn) | – | – | – | > 100 µM | – | > 100 µM | – | > 100 µM | – | > 100 µM | – | > 100 µM | – | > 100 µM | – | > 100 µM | – | > 100 µM | – | > 100 µM
COc1cc2c(c(OC)c1OC)-c1ccc(SC)c(=O)cc1C(CC(=O)Oc1cccc(C#N)c1)C2 (stereo not drawn) | – | – | – | > 100 µM | – | 5.66 µM | – | 0.796 µM | – | > 100 µM | – | > 100 µM | – | > 100 µM | – | > 34.6 µM | – | 6.88 µM | – | > 100 µM
Oc1ccc(CN(Cc2ccc(C(F)(F)F)cc2)Cc2ccc(O)c3ncccc23)c2cccnc12 | 0.0297 µM | > 100 µM | 0.0217 µM | > 100 µM | < 0.01 µM | > 100 µM | 0.0717 µM | > 100 µM | 0.0349 µM | > 100 µM | 0.0394 µM | 5.21 µM | 0.0256 µM | > 100 µM | 0.0245 µM | > 100 µM | < 0.0142 µM | > 100 µM | – | –

Reference: PubChem BioAssay (NCI)
